Assay results as given in US20250345299A1, “COMBINATION AND COMPOSITION COMPRISING NICOTINIC ACID OR DERIVATIVE THEREOF AND FATTY ACID OR DERIVATIVE THEREOF” (T OMEGA AS, priority 2022, published 2025).

Key:
Format in all cases: in vivo, male Wistar rats, Rattus norvegicus
[1] = Analysis of plasma compounds in rats fed high-fat diet supplemented with TTA, NR, NAR or combinations; design: Quinolinic acid / Nicotinamide / N1-Methylnicotinamide / Pyridoxal 5′-phosphate / Pyridoxal / Thiamine monophosphate: unit not given here; settings: high-fat diet + supplement, 12 weeks
Procedure: This example illustrates an animal study using male Wistar rats which were fed NR, NAR, TTA and combinations thereof.
(§1) The animal study was conducted according to the Guidelines for the Care and Use of Experimental Animals, and in accordance with the Norwegian legislation and regulations governing experiments using live animals. All efforts were made to optimize the animal environment and minimize suffering. Eight weeks-old old male Wistar rats, Rattus norvegicus, weighing 400-450 g, were purchased from Taconic (Ejby, Denmark). Upon arrival the rats were randomized using Research Randomizer, labeled and placed in open cages, two in each cage, where they were allowed to acclimatize to their surroundings for one week. During the acclimatization and experiment period, the rats had unrestricted access to tap water, but restricted access to chow to obtain a constant dose through the experiment.
(§2) The rats were kept in a 12 hours light/dark cycle at a constant temperature (22±2° C.) and a relative humidity of 55% (±5%). Upon start of the experiment, the rats were block randomized to their respective interventions. All rats were divided into seven groups. The first group of animals (control group) was fed a high-fat diet (HF) with 25% by weight fat, consisting of 23% by weight lard and 2% by weight soybean oil, referred to as “HF”. The second group was fed a high-fat diet (HF) supplemented with tetradecylthioacetic acid (TTA) (250 mg/day/kg body weight), referred to as “HF+TTA”. The third group was fed a high-fat diet (HF) supplemented with nicotineamide riboside (NR) (100 mg/day/kg body weight), referred to as “HF+NR”. The fourth group was fed a high-fat diet (HF) supplemented with nicotinic acid riboside (NAR) (40 mg/day/kg body weight), referred to as “HF+NAR”. The fifth group was fed a high-fat diet (HF) supplemented with both tetradecylthioacetic acid (TTA) (250 mg/day/kg body weight) and nicotineamide riboside (NR) (100 mg/day/kg body weight), referred to as “HF+TTA+NR”. The sixth group was fed a high-fed diet (HF) supplemented with both tetradecylthioacetic acid (TTA) (250 mg/day/kg body weight) and nicotinic acid riboside (NAR) (40 mg/day/kg body weight), referred to as “HF+TTA+NAR”. The seventh group was fed a low-fed diet, referred to as “LF”.
(§3) All animals were weighed daily and feed intake was determined weekly. The animal experiment was run for 12 weeks. At sacrifice, rats were anaesthetized by inhalation of 2-5% isoflurane (Schering-Plough, Kent, UK), the abdomen opened along the midline, and exsanguination was performed using cardiac puncture. EDTA-blood was collected and immediately chilled on ice. The samples were centrifuged and plasma was stored at −80° C. prior to analysis. Different tissues were collected, weighed and were immediately snap-frozen in liquid nitrogen and stored at −80° C. until further analysis.

[2] = Liver lipids in rats fed supplemented high-fat diet; settings: high-fat diet + supplement, 12 weeks
Procedure: as §1, with “Eight weeks-old old male Wistar rats, Rattus norvegicus, weighing 400-450 g, were purchased from Taconic (Ejby, Denmark).” left out
The rats were kept in a 12 hours light/dark cycle at a constant temperature (22±2° C.) and a relative humidity of 55% (±5%). Upon start of the experiment, the rats were block randomized to their respective interventions. All rats were divided into seven groups. The first group of animals (control group) was fed a high-fat diet (HF) with 25% by weight fat, consisting of 23% by weight lard and 2% by weight soybean oil, referred to as “HF”. The second group was fed a high-fat diet (HF) supplemented with tetradecylthioacetic acid (TTA) (250 mg/day/kg body weight), referred to as “HF+TTA”. […]
All animals were weighed daily and feed intake was determined weekly. […]

[3] = Plasma lipids and total fatty acids in rats fed supplemented high-fat diet; settings: high-fat diet + supplement, 12 weeks
Procedure: as §1, with “Eight weeks-old old male Wistar rats, Rattus norvegicus, weighing 400-450 g, were purchased from Taconic (Ejby, Denmark).” left out
as §2, §3

[4] = Body and adipose tissue weights in rats fed supplemented high-fat diet
Procedure: as §1, with “Eight weeks-old old male Wistar rats, Rattus norvegicus, weighing 400-450 g, were purchased from Taconic (Ejby, Denmark).” left out
as §2, §3

[5] = high-fat diet + supplement, 12 weeks

Work on `O=C([O-])c1ccc[n+]([C@@H]2O[C@H](CO)[C@@H](O)[C@H]2O)c1` [HF + NAR, nicotinic acid riboside] yielded a 2-Aminoadipic acid [1] of 1.34 µM, a 3-Hydroxyanthranilic acid [1] of 7.8 µM and a Folic acid [1] of 0.70 µM. It also gave a Methylmalonic acid [1] of 2.35 µM, an N1-Methylnicotinamide [1] of 2414 and a Nicotinamide [1] of 4308. The Nicotinic acid [1] was 11.95 µM, the Pyridoxal [1] was 384.1 and the “Pyridoxal 5′-phosphate” value [1] was 598.3. It also gave a Serine [1] of 325 µM, a Thiamine monophosphate [1] of 350.0 and a Trigonelline [1] of 0.084 µM.
For nicotineamide riboside [HF + NR], the “Liver lipids: Cholesterol” value [2] was 39.84 µmol/g, the “Liver lipids: Triglycerides” value [2] was 75.22 µmol/g and the 2-Aminoadipic acid [1] was 1.33 µM. For the same molecule, the 3-Hydroxyanthranilic acid [1] was 5.4 µM, the 3-Hydroxybutyrate [1] was 287 µM and the Acetoacetate [1] was 72.9 µM. It also gave a Glycine [1] of 221 µM, a Methylmalonic acid [1] of 3.37 µM and an N1-Methylnicotinamide [1] of 3616. For the same molecule, the Nicotinamide [1] was 5870, the Nicotinic acid [1] was 12.38 µM and the Pyridoxal [1] was 369.8. The “Pyridoxal 5′-phosphate” value [1] was 729.0, the Quinolinic acid [1] was 533 and the HDL/LDL ratio [3] was 2.117. For the same molecule, the “Plasma lipids: Cholesterol” value [3] was 2.000 mmol/L, the “Plasma lipids: High density lipoprotein” value [3] was 0.938 mmol/L and the “Plasma lipids: Low density lipoprotein” value [3] was 0.450 mmol/L. For the same molecule, the “Plasma lipids: Triglycerides” value [3] was 2.194 mmol/L, the “Total fatty acids, plasma” value [3] was 3049 µg/mL and the “Brown adipose tissue weight” value [4, 5] was 0.308 g. For the same molecule, the “White adipose tissue weight” value [4, 5] was 34.52 g, the Body weight end ([4]; high-fat diet + supplement, end of 12 weeks) was 555.60 g and the Body weight start ([4]; start of experiment (baseline)) was 409.60 g.
